The record followed here is ChEMBL document CHEMBL3779774, “Efficient synthesis of novel disubstituted pyrido[3,4-b]pyrazines for the design of protein kinase inhibitors” (Medchemcomm, 2016).

Assay [1] concerns the target Homeodomain-interacting protein kinase 1 (Homo sapiens, UniProt Q86Z02). The assay can be described thus: Inhibition of N-terminal His6-tagged recombinant human HIPK1 (158 to 555 residues) after 1 hr by Alphascreen assay. In general terms: Bead proximity is the source of the signal in Alpha formats.
The target of assay [2] is Tyrosine-protein kinase ABL1 (Homo sapiens, UniProt P00519). The assay can be described thus: Inhibition of recombinant c-Abl (unknown origin) after 1 hr by Alphascreen assay.
Assay [3] addresses Serine/threonine-protein kinase pim-1 (Homo sapiens, UniProt P11309). The experiment in a line: Inhibition of N-terminal GST-tagged recombinant human full length Pim-1 expressed in Escherichia coli after 1 hr by Alphascreen assay.
The target of assay [4] is Vascular endothelial growth factor receptor 2 (Homo sapiens, UniProt P35968). The assay can be described thus: Inhibition of N-terminal His6-tagged human recombinant KDR (790 to end residues) expressed in baculovirus infected insect Sf21 cells after 1 hr by Alphascreen assay.
In assay [5] the target is Mitogen-activated protein kinase 1 (Homo sapiens, UniProt P28482). The experiment in a line: Inhibition of recombinant ERK2 (unknown origin) after 1 hr by Alphascreen assay.
In assay [6] the target is Tyrosine-protein kinase Yes (Homo sapiens, UniProt P07947). The assay can be described thus: Inhibition of N-terminal His6-tagged human recombinant Yes expressed in baculovirus infected insect Sf21 cells after 1 hr by Alphascreen assay.
Assay [7] addresses High affinity nerve growth factor receptor (Homo sapiens, UniProt P04629). The assay can be described thus: Inhibition of N-terminal His6-tagged human recombinant TrkA (440 to end residues) expressed in baculovirus infected insect Sf21 cells after 1 hr by Alphascreen assay.

pIC50: −log10 of the molar value.

Vascular endothelial growth factor receptor 2, sequence (P35968 whole entry): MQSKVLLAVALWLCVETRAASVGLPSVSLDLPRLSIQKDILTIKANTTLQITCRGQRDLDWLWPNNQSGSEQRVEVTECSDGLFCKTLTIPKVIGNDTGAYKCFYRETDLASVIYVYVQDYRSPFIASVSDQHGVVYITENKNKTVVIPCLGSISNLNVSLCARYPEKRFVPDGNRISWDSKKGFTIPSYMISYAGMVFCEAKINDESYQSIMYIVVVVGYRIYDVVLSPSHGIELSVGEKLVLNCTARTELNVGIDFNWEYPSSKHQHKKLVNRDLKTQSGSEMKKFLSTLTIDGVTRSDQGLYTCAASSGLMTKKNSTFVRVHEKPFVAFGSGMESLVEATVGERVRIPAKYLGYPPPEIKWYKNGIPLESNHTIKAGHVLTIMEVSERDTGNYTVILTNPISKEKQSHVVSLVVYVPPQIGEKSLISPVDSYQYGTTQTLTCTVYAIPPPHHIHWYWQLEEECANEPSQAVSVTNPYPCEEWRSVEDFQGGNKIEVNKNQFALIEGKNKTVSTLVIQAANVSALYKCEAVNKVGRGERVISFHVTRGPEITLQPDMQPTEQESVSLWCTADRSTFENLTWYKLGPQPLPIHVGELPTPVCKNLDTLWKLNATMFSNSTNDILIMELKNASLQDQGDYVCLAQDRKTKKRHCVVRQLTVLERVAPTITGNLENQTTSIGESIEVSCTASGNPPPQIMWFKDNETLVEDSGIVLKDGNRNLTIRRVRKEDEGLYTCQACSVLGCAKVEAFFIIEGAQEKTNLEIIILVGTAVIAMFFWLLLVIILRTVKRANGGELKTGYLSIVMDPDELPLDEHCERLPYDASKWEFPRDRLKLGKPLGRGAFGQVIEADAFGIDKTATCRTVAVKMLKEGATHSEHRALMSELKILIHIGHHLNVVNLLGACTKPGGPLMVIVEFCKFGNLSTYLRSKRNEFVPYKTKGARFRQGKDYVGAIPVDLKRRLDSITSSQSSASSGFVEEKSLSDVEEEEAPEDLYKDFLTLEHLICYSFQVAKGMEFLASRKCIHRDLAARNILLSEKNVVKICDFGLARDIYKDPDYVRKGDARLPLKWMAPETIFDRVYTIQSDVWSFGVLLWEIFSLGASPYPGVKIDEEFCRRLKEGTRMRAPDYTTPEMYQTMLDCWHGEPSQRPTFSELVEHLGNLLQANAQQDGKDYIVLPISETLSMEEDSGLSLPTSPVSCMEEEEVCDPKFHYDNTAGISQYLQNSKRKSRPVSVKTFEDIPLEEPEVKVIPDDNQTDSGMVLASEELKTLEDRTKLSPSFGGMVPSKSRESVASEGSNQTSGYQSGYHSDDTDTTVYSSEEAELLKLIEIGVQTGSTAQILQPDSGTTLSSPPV
High affinity nerve growth factor receptor, sequence (P04629 whole entry): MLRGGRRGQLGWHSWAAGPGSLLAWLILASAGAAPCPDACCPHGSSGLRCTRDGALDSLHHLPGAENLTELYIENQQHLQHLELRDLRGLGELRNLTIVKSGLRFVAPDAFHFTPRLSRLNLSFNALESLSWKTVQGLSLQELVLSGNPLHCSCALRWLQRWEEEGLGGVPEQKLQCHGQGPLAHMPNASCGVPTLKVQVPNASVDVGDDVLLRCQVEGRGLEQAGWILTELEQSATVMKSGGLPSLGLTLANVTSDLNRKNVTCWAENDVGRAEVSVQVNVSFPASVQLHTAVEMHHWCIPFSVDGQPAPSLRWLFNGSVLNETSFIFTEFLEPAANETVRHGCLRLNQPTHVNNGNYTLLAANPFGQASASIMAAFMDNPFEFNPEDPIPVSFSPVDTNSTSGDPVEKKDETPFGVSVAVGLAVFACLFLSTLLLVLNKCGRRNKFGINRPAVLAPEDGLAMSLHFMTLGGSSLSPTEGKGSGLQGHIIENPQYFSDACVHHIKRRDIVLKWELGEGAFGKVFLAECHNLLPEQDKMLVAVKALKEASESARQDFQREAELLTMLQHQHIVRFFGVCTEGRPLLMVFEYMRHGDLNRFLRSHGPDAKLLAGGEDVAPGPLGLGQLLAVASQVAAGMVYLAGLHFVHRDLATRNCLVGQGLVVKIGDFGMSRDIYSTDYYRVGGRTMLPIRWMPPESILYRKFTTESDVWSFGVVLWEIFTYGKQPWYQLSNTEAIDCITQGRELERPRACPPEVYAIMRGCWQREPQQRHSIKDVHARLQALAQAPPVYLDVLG
Homeodomain-interacting protein kinase 1, sequence (Q86Z02 whole entry, the tested form may be a part): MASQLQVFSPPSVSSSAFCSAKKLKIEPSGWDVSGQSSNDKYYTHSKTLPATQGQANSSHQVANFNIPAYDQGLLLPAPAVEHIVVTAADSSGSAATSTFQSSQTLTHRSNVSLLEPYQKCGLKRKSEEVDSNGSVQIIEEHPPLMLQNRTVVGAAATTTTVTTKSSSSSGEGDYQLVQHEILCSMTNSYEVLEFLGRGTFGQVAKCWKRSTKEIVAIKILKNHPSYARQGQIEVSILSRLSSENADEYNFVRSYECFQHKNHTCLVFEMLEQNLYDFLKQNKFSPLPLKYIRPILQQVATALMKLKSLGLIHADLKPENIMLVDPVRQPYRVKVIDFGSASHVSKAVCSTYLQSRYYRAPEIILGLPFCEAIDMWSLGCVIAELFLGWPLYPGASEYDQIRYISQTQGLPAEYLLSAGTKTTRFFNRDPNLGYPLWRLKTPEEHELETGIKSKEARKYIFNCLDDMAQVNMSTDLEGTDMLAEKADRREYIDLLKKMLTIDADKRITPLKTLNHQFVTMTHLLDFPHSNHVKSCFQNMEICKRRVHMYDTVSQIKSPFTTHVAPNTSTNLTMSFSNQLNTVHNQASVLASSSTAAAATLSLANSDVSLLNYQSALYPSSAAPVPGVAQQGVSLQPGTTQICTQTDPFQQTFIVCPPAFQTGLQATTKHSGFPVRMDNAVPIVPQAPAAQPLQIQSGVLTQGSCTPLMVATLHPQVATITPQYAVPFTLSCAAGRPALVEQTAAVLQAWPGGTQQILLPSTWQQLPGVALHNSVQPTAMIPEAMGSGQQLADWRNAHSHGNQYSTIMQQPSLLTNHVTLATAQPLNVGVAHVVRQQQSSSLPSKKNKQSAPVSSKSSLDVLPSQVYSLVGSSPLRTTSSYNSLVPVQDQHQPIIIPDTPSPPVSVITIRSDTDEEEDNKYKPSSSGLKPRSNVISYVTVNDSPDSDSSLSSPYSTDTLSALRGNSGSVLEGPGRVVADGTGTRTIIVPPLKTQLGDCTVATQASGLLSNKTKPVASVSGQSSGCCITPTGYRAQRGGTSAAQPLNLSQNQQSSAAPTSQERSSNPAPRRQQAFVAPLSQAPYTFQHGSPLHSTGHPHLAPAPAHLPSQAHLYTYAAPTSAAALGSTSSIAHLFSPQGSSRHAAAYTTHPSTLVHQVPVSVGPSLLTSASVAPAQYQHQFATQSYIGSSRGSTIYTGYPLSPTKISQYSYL
Serine/threonine-protein kinase pim-1, sequence (P11309 whole entry): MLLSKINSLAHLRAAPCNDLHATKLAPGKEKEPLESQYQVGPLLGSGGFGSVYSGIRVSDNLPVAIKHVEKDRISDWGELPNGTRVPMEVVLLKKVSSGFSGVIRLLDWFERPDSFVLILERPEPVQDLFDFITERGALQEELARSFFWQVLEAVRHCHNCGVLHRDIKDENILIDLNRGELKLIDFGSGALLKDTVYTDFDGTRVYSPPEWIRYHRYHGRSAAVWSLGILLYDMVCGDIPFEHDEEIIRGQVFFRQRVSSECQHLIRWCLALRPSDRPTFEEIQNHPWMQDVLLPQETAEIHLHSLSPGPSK
Tyrosine-protein kinase Yes, sequence (P07947 whole entry): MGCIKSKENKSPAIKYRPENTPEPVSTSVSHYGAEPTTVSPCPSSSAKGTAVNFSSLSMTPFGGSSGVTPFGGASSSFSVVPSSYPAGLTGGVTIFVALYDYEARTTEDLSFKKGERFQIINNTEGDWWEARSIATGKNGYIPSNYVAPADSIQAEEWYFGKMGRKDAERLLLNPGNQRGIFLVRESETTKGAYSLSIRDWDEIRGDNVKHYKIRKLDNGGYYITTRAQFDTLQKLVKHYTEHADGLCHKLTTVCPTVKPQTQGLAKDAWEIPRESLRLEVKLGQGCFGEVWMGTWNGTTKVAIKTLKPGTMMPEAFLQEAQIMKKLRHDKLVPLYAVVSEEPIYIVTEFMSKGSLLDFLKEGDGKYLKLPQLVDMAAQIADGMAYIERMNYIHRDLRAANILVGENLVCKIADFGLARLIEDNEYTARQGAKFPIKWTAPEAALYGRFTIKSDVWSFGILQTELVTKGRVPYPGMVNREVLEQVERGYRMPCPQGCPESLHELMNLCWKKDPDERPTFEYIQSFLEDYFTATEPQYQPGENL
Mitogen-activated protein kinase 1, sequence (P28482 whole entry): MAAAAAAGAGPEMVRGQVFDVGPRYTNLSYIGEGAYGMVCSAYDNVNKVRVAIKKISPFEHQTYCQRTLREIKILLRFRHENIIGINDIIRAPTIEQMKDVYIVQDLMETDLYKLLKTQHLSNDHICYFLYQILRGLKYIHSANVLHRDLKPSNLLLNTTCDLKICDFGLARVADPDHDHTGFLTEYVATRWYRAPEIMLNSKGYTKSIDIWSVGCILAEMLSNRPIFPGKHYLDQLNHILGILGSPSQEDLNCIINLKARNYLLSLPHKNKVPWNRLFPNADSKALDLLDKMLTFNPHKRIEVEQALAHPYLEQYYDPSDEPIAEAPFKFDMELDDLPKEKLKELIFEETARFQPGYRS

Broadly, the pIC50 is the IC50 on a negative log10 scale, so that one unit is a factor of ten. Consider `Fc1ccc(Nc2cncc3nc(-c4ccccc4)cnc23)cc1Cl`, for which the pIC50 in assay [1] was less than 4.00; in assay [2], less than 4.00; in assay [3], less than 4.00; in assay [4] it was less than 4.00; in assay [5], less than 4.00; in assay [6], less than 4.50. For the same compound, in assay [7], the pIC50 is less than 4.00.

With `C#Cc1cccc(Nc2nccc3nc(-c4ccccc4)cnc23)c1`, the pIC50 in assay [1], in assay [2], in assay [3], in assay [4], in assay [5] and in assay [6] was less than 4.00 in each case. For the same compound, the pIC50 in assay [7] was less than 4.00.

As to `COc1cccc(NC(=O)Nc2cncc3nc(-c4ccccc4)cnc23)c1`, the pIC50 in assay [1] was less than 4.00; in assay [2], less than 4.00; in assay [3], less than 4.50; in assay [4], less than 4.00; in assay [5] it was less than 4.50; in assay [6], less than 4.50. For the same compound, the pIC50 in assay [7] is less than 4.00.

Regarding `c1ccc(-c2cnc3c(Nc4ccc(N5CCOCC5)cc4)nccc3n2)cc1`, the pIC50 in assay [1] is less than 4.00; in assay [2] it was 4.94; in assay [3], less than 4.00; in assay [4] it was 4.80; in assay [5], less than 4.00; in assay [6] it was 4.90. The pIC50 in assay [7] was 4.86.

On to `c1ccc(-c2cnc3cnc(Nc4ccc(N5CCOCC5)cc4)cc3n2)cc1`, for which the pIC50 in assay [1], in assay [2], in assay [3], in assay [4], in assay [5] and in assay [6] was less than 4.00 each time. For the same compound, the pIC50 in assay [7] is less than 4.00.

In the case of `c1ccc(-c2cnc3cc(Nc4ccc(N5CCCCC5)cc4)ncc3n2)cc1`, the pIC50 in assay [1] is less than 4.00; in assay [2] it was 4.89; in assay [3], less than 4.00; in assay [4], less than 4.00; in assay [5], less than 4.00; in assay [6], 4.57. In addition, the pIC50 in assay [7] is less than 4.00.

Take `c1ccc(-c2cnc3cncc(Nc4ccc(N5CCOCC5)cc4)c3n2)cc1`: the pIC50 in assay [1] was 5.09; in assay [2] it was 5.28; in assay [3], 5.08; in assay [4] it was 5.21; in assay [5] it was 5.07; in assay [6], 5.29. In addition, the pIC50 in assay [7] is 5.27.

Take `COc1ccc(-c2cnc3c(Nc4ccc(N5CCOCC5)cc4)nccc3n2)cc1`: the pIC50 in assay [1] is less than 4.00; in assay [2], 5.27; in assay [3], less than 4.00; in assay [4] it was 4.92; in assay [5] it was less than 4.00; in assay [6], 5.15. For the same compound, the pIC50 in assay [7] is 5.17.

On to `c1ccc(-c2cnc3c(Nc4ccc(N5CCCCC5)cc4)nccc3n2)cc1`, for which the pIC50 in assay [1] is 6.04; in assay [2] it was 5.58; in assay [3] it was 5.31; in assay [4], 5.96; in assay [5] it was 5.85; in assay [6], 5.09. For the same compound, in assay [7], the pIC50 was 5.24.

On to `COc1cccc(NC(=O)Nc2nccc3nc(-c4ccccc4)cnc23)c1`, for which the pIC50 in assay [1] was less than 4.00; in assay [2] it was less than 4.00; in assay [3] it was less than 4.00; in assay [4], less than 4.00; in assay [5], less than 4.00; in assay [6], less than 4.50. Moreover, in assay [7], the pIC50 is less than 4.00.

On to `COc1ccc(-c2cnc3cncc(Nc4ccc(N5CCCCC5)cc4)c3n2)cc1`, for which the negative-log IC50 (pIC50) is 5.49 in assay [1]; 5.64 in assay [2]; 5.55 in assay [3]; 5.69 in assay [4]; 5.50 in assay [5]; 5.27 in assay [6]. For the same compound, the pIC50 in assay [7] is 5.43.

As for `CCNC(=O)Nc1nccc2nc(-c3ccccc3)cnc12`, the pIC50 in assay [1] is less than 4.00; in assay [2] it was 4.51; in assay [3], less than 4.00; in assay [4] it was less than 4.00; in assay [5], less than 4.00; in assay [6], less than 4.00. For the same compound, the pIC50 in assay [7] is less than 4.00.

Consider `c1ccc(Nc2cncc3ncc(-c4ccc(N5CCCCC5)cc4)nc23)cc1`, for which the pIC50 was 4.93 in assay [1]; 5.16 in assay [2]; 4.51 in assay [3]; 4.96 in assay [4]; 4.91 in assay [5]; 5.05 in assay [6]. The pIC50 in assay [7] is 5.11.

As to `COc1cccc(Nc2cc3nc(-c4ccccc4)cnc3cn2)c1`, the pIC50 in assay [1] is less than 4.00; in assay [2], less than 4.00; in assay [3], less than 4.00; in assay [4], less than 4.00; in assay [5], less than 4.00; in assay [6], less than 4.50. For the same compound, the pIC50 in assay [7] was less than 4.00.

In the case of `c1ccc(-c2cnc3c(Nc4ccc(N5CCCCC5)cc4)cncc3n2)cc1`, the pIC50 was 5.56 in assay [1]; 5.60 in assay [2]; 5.55 in assay [3]; 5.69 in assay [4]; 5.63 in assay [5]; 5.21 in assay [6]. The pIC50 in assay [7] is 5.47.

Turning to `c1ccc(Nc2cncc3nc(-c4ccc(N5CCCCC5)cc4)cnc23)cc1`, the negative-log IC50 (pIC50) was less than 4.00 in assay [1]; 4.65 in assay [2]; less than 4.00 in assay [3]; less than 4.00 in assay [4]; less than 4.00 in assay [5]; less than 4.50 in assay [6]. The pIC50 in assay [7] was less than 4.00.

For the compound `COc1ccccc1Nc1nccc2nc(-c3ccccc3)cnc12`, the pIC50 in assay [1] was less than 4.00; in assay [2], 4.78; in assay [3] it was less than 4.00; in assay [4], less than 4.50; in assay [5], less than 4.00; in assay [6], 4.69. Moreover, in assay [7], the pIC50 is less than 4.00.

On to `COc1ccc(Nc2nccc3nc(-c4ccccc4)cnc23)cc1`, for which the pIC50 in assay [1] is less than 4.00; in assay [2], less than 4.00; in assay [3], less than 4.00; in assay [4], less than 4.00; in assay [5], less than 4.00; in assay [6] it was 4.50. Further, in assay [7], the pIC50 was less than 4.00.

In the case of `COc1cccc(Nc2nccc3nc(-c4ccccc4)cnc23)c1`, the pIC50 in assay [1], in assay [2], in assay [3], in assay [4], in assay [5] and in assay [6] was less than 4.00 each time. Also, the pIC50 in assay [7] is less than 4.00.

Consider `COc1cccc(Nc2cncc3ncc(-c4ccc(N5CCCCC5)cc4)nc23)c1`, for which the pIC50 in assay [1] is 4.90; in assay [2], 5.11; in assay [3] it was 4.95; in assay [4], 5.05; in assay [5] it was 4.78; in assay [6], 4.95. Also, the pIC50 in assay [7] is 5.03.

Turning to `COc1ccc(-c2cnc3c(Nc4ccc(N5CCCCC5)cc4)nccc3n2)cc1`, the pIC50 in assay [1] is 5.14; in assay [2], 5.87; in assay [3] it was 4.93; in assay [4], 5.70; in assay [5], 5.84; in assay [6] it was 5.99. Further, the pIC50 in assay [7] is 5.84.

For `COc1ccc(-c2cnc3cncc(Nc4ccc(N5CCOCC5)cc4)c3n2)cc1`, the pIC50 in assay [1] was 5.40; in assay [2], 5.60; in assay [3], 5.36; in assay [4] it was 5.48; in assay [5], 5.37; in assay [6] it was 5.62. Further, the pIC50 in assay [7] was 5.61.

`c1ccc(-c2cnc3cnc(Nc4ccc(N5CCCCC5)cc4)cc3n2)cc1`: the pIC50 in assay [1] is 4.52; in assay [2] it was 5.06; in assay [3] it was 4.56; in assay [4], 4.77; in assay [5], 4.63; in assay [6], 4.64. Further, the pIC50 in assay [7] is 5.03.

Consider `C=CCNC(=O)Nc1cncc2nc(-c3ccccc3)cnc12`, for which the pIC50 is less than 4.00 in assay [1]; less than 4.00 in assay [2]; less than 4.00 in assay [3]; less than 4.50 in assay [4]; less than 4.50 in assay [5]; less than 4.00 in assay [6]. Besides, in assay [7], the pIC50 was less than 4.00.

For `COc1ccc(NC(=O)Nc2cncc3nc(-c4ccccc4)cnc23)cc1`, the negative logarithm of the IC50 (pIC50) in assay [1] is 4.69; in assay [2], 4.60; in assay [3], 4.78; in assay [4] it was less than 4.00; in assay [5], 5.28; in assay [6], 4.66. Besides, the pIC50 in assay [7] is less than 4.00.

Consider `c1ccc(-c2cnc3cncc(Nc4ccc(N5CCCCC5)cc4)c3n2)cc1`, for which the pIC50 in assay [1] is 5.59; in assay [2], 5.67; in assay [3], 5.58; in assay [4], 5.81; in assay [5], 5.69; in assay [6] it was 5.25. Besides, the pIC50 in assay [7] was 5.49.

For `COc1ccc(-c2cnc3cncc(Nc4cc(OC)ccc4OC)c3n2)cc1`, the pIC50 in assay [1] is 4.88; in assay [2], 5.86; in assay [3], 5.07; in assay [4] it was 5.80; in assay [5], 5.42; in assay [6] it was 5.70. The negative logarithm of the IC50 (pIC50) in assay [7] is 5.84.

As to `COc1cccc(Nc2cncc3nc(-c4ccc(N5CCCCC5)cc4)cnc23)c1`, the pIC50 in assay [1] was less than 4.00; in assay [2] it was 5.10; in assay [3], less than 4.00; in assay [4], less than 4.00; in assay [5], less than 4.00; in assay [6] it was less than 4.50. In assay [7], the pIC50 is less than 4.00.
